{"source": "paper PMC6154319", "about": "“Intestinal Transport Characteristics and Metabolism of C-Glucosyl Dihydrochalcone, Aspalathin” (Molecules : A Journal of Synthetic Chemistry and Natural …, 2017)", "key": {"in vitro": {"test": "in vitro", "conditions": "human, Caco-2, Papp (cm/s) a-b × 10^−6", "experimental": "Validation of the Caco-2 transport experiments required consideration of three parameters, i.e., firstly, to determine the cytotoxic concentrations of synthetic aspalathin, secondly, the concentration of aspalathin required to ensure HPLC detection in the basolateral compartment, and finally, to assess whether the transport of aspalathin is concentration dependent.\nCells were cultured at 37 °C and 5% CO2 in 95% humidified air in Eagle’s Minimum Essential Medium (EMEM) containing sodium […] pyruvate, supplemented with 2 mM L-glutamine, 1% non-essential amino acids and 10% heat inactivated FBS. Cell cultures were split when 70%–80% confluent, using trypsin/ethylenediaminetetraacetic acid (EDTA). The culture medium, pre-warmed to 37 °C, was refreshed every 2–3 days. Cells were seeded at 1 × 10^4 cells/cm^2 and a sub-cultivation ratio of 1:3 was routinely used. Cells were seeded with the addition of 1% penicillin/streptomycin mixture (10,000 units/mL potassium penicillin and 10,000 µg/mL streptomycin sulphate) at 4 × 10^4 cells/cm^2 onto 0.4 µm polycarbonate 6-well inserts with an insert area of 4.52 cm^2. Cells were used for transport experiments when TEER values across wells were >300 Ω, typically 21–23 days post confluence. Only passages 50–60 were used to prevent phenotypic drift.\nThe cell monolayers were equilibrated briefly with transport buffer, pH 6.0 (HBSS with 2-(N-morpholino) ethanesulphonic acid (MES)) on the apical side and pH 7.4 (HBSS with HEPES) on the basolateral side, to remove traces of the culture media. Following this, transport buffers were added for 30 min prior to the addition of treatment (inhibitors were added during this step when required, as well as during the subsequent treatment incubation step). After equilibration, the plates containing transport medium were incubated for 30 min at 37 °C at 5% CO2 in 95% humidified air and the TEER value of the monolayer determined. […] For basolateral-to-apical compartment studies, 2.4 mL of treatment at the same concentrations in HBSS (pH 7.4), was added to the basolateral compartment.\nTo assess whether aspalathin was co-transported with glucose, its transport (100 µM) at both high (20.5 mM) and low (5.5 mM) glucose concentrations, mimicking the intestinal lumen glucose concentrations pre- and post-meals, was monitored. This was followed by experiments performed in the presence and absence of SGLT1 (100 µM phloridzin), GLUT2 (100 µM phloretin) and efflux, PgP (100 µM verapamil) inhibitors.\nSamples (1.2 mL) were withdrawn from the basolateral or the apical compartment to measure the concentration of aspalathin uptake and efflux, respectively at 0, 0.5, 1, 1.5, and 2 h under sink conditions (the sample aliquot replaced with equal volume of relevant transport buffer). Sample aliquots (350 µL) were frozen in liquid nitrogen after the addition of ascorbic acid (35 µL of 10% solution) and stored at −65 °C until HPLC analysis. Results were corrected for dilution and expressed as cumulative transport (% of initial dose) as a function of time. Papp (cm/s) for bi-directional transport studies was calculated as previously described. Transport of other major flavonoids in the matrices, i.e., nothofagin, the 3-deoxy analogue of aspalathin and its flavone derivatives, orientin and isoorientin, were also determined.\nLucifer yellow (final concentration 0.1 mM) was used as a membrane integrity marker and co-incubated with the compounds and extracts.\nHPLC-DAD analysis of samples from the apical and basolateral compartments was performed in duplicate on an Agilent 1200 system as previously described. Basolateral and apical samples taken after 2 h with pure aspalathin were also analysed using LC-MS (parameters described in [42]) to determine whether aspalathin metabolites were formed in the Caco-2 model.\nAll experiments were performed in triplicate and the data expressed as mean ± SD, unless otherwise indicated."}, "mouse liver microsomes": {"system": "mouse liver microsomes", "test": "In vitro incubation of aspalathin in mouse liver microsomes and phosphate buffer", "type": "in vitro ADME", "experimental": "Synthetic aspalathin (10 µM) was incubated at 37 °C in a solution containing 1 mg/mL microsomes (male Mouse BALB/c, Xenotech, Kansas city, KS, USA), magnesium chloride (5 mM) and nicotinamide adenine dinucleotide phosphate (NADPH) (1 mM) in phosphate buffer (100 mM, pH 7.4), for 1 h while shaking. A control containing all the sample constituents (not incubated), another containing no NADPH, and another containing only the compound in phosphate buffer were also included and handled similarly to the test sample.\n(§1) The frozen whole blood samples, as well as the samples incubated with microsomes and controls, were thawed, extracted by protein precipitation using 0.1% formic acid (FA) in acetonitrile, centrifuged and filtered through 0.22 µm polyvinylidene difluoride (PVDF) filters (Merck Millipore, Frankfurter Straße, Darmstadt, Germany). Frozen whole urine samples were thawed and diluted 5 times in 0.1% aqueous FA. Samples were analysed by LC-MS/MS on an Agilent 1200 Rapid Resolution HPLC system (600 bar, Agilent Technologies) coupled to a 4000 QTRAP® (AB Sciex, Framingham, MA, USA) equipped with a Turbo V™ […]. Filtered samples (10 μL), stored on a sample tray maintained at 8 °C, were injected on a Gemini C6-Phenyl column (150 × 2.0 mm, 3 µm particles) (Phenomenex, Santa Clara, CA, USA) at 40 °C. […]"}, "[1]": {"test": "Acute mouse study, metabolite identification in blood and urine by LC-MS/MS", "type": "in vivo", "conditions": "oral 50 mg/kg aspalathin, urine over 8 h, tentative identification by LC-MS/MS", "experimental": "An acute mouse study was performed under ethical approval from the Ethics Committee for Research on Animals (ECRA) of the South African Medical Research Council (Ref:07/13). Three 8-week old male C57.BKS mice, obtained from the Primate Unit of the South African Medical Research Council (Tygerberg, South Africa), were housed individually in polycarbonate cages with wired lids and kept in a controlled environment of 23–24 °C, 50% humidity, and a 12 h light/dark cycle. Prior to the study, urine was collected from the fasting mice overnight in a metabolic cage. Baseline fasted blood was collected via tail snip into a heparin tube, snap frozen in liquid nitrogen, and stored at −80 °C. Each mouse received a single dose of synthetic aspalathin (50 mg/kg body weight) dissolved in phosphate-buffered saline (PBS) (5 mg/mL) via orogastric gavage. Blood samples were collected and handled as described for fasting at time 0 (pre-gavage), and 1, 2, 4, 6, and 8 h post-gavage. All the samples were collected into the same heparin tube and kept on ice during the experiment. Urine was collected over the 8-h post-gavage monitoring period and the samples were stored at −80 °C until analysis.\nas §1"}}}
{"compound": "O=c1cc(-c2ccc(O)c(O)c2)oc2cc(O)c([C@@H]3O[C@H](CO)[C@@H](O)[C@H](O)[C@H]3O)c(O)c12", "note": "[Isoorientin]", "values": [{"measurement": "Papp A→B at 2 h", "setting": "in vitro", "result": "1.69 ± 0.2", "unit": "×10⁻⁶ cm/s"}]}
{"compound": "O=c1cc(-c2ccc(O)c(O)c2)oc2c([C@@H]3O[C@H](CO)[C@@H](O)[C@H](O)[C@H]3O)c(O)cc(O)c12", "note": "[Orientin]", "values": [{"measurement": "Papp A→B at 2 h", "setting": "in vitro", "result": "1.92 ± 0.2", "unit": "×10⁻⁶ cm/s"}]}
{"compound": "Eriodictyol-C-glucoside [M1]", "values": [{"measurement": "product identified after incubation of aspalathin in mouse liver microsomes", "setting": "mouse liver microsomes; aspalathin 10 µM, 1 mg/mL microsomes, NADPH, 37 °C, 1 h", "result": "identified"}, {"measurement": "product identified after incubation of aspalathin in phosphate buffer", "setting": "mouse liver microsomes; phosphate buffer pH 7.4", "result": "identified"}, {"measurement": "metabolite present in mouse urine (relative concentrations)", "setting": "[1]", "result": "identified"}]}
